Data reported in patent US11474106B2, “Methods for cytotoxic chemotherapy-based predictive assays” (ACCELERATED MEDICAL DIAGNOSTICS, INC., priority 2015, dated 2022).

Key:
5637 [1] = assay: Oxaliplatin-DNA adduct formation and repair by AMS; assay type: cell-based, human
Procedure: (§1) To characterize the oxaliplatin-DNA adduct frequency in these cell lines, cells from each cell line were seeded in 60-mm dishes at a density of 1×10^6 cells/dish and allowed to attach overnight in a 37° C. humidified atmosphere containing 5% CO2. […] The cells were then washed twice with phosphate-buffered solution (PBS) and maintained thereafter with oxaliplatin-free culture media. DNA was harvested at hours 0, 2, 4, 8, 24, 28 and 48 hours using a Promega Wizard DNA Purification Kit. Ten micrograms of DNA per sample was converted to graphite and measured by AMS for ^14C quantification. Triplicate sets of AMS experiments were performed and the data was plotted as time vs oxaliplatin-DNA adducts per 10^8 nt.
(§2) Statistics were calculated with n=3 for each cell line. ANOVA analysis of IC50 and AUC data were based on a one-sided t-test.

5637R [2] = assay: Oxaliplatin-DNA adduct formation and repair by AMS; assay type: cell-based, human
Procedure: as §1, §2

[3] = assay type: physicochemical; conditions: 0.5 mg/mL in water
Procedure: Radiolabeled carboplatin containing C^14 carbon atoms in the cyclobutane dicarboxylic acid group was formulated for human use as a sterile, pyrogen free solution at 5 mg/mL in water.

PBMC = assay: Microdose-induced oxaliplatin-DNA adduct frequency by AMS; assay type: in vivo, human
Procedure: The plasma samples were additionally processed to isolate PBMC, and the DNA was extracted and analyzed using AMS to calculate the oxaliplatin-DNA adduct frequency (both monoadducts and diadducts combined) (FIG. 17B). […] These adduct levels then decrease substantially out to 48 hours post microdosing. […] Overall, the plasma PK and time course of oxaliplatin-DNA adduct formation and repair in PBMC allowed determination of the best time to dose patients prior to biopsy in order to maximize the oxaliplatin-DNA adduct formation, allow for repair in those patients with high repair capacity, minimize the risk of radioactive contamination of PBMC and tumor samples, and also minimize the risk of radioactive contamination of the operating room by blood-borne radiocarbon.
Plasma samples were collected, filtered, and counted by liquid scintillation counting to determine plasma oxaliplatin levels. […] The range of microdose-induced adduct levels (frequencies) for the three colorectal patients was 0.1-6 adducts per 10^8 nt.

cancer patients = assay: Patient toxicity related to the microdose; assay type: in vivo, human; conditions: IV microdose, 2.0×10^6 DPM/kg
Procedure: Radiolabeled carboplatin containing C^14 carbon atoms in the cyclobutane dicarboxylic acid group was formulated for human use as a sterile, pyrogen free solution at 5 mg/mL in water. […] Microdoses of the [^14C]Carboplatin were administered to human cancer patients as a diagnostic reagent, followed by full dose platinum-based chemotherapy and evaluation of response. Within four weeks of the [^14C]carboplatin microdose, these patients received standard of care chemotherapy for their disease, which included either carboplatin or cisplatin. […] Toxicity of the [^14C]carboplatin diagnostic reagent administered as a microdose was assessed using Common Terminology Criteria for Adverse Events (CTCAE).
The dose of carboplatin in the diagnostic microdose was chosen to be sub-toxic and non-therapeutic, to minimize patient chemical and radiation exposure, and to result in AMS measurable carboplatin-DNA monoadducts. Nineteen patients have been administered at least one microdose of [^14C]carboplatin via IV infusion as a diagnostic reagent. Patient toxicity related to the microdose was monitored from the time of IV microdose until the patients received their first chemotherapy.

[4] = Human plasma pharmacokinetics of oxaliplatin microdose; assay type: in vivo; conditions: metastatic breast cancer patient, IV microdose
Procedure: Single agent oxaliplatin chemotherapy is given by IV at a personalized dose of 130 mg/m^2 of body surface area using the Du Bois and Du Bois formula (Du Bois, D., and E. F. Du Bois. “A formula to estimate the approximate surface area if height and weight be known. 1916.” Nutrition (Burbank, Los Angeles County, Calif.) 5.5 (1989): 303).
Radiolabeled oxaliplatin containing C^14 carbon atoms in the cyclohexane ring was formulated for human use as a sterile, pyrogen free solution at 0.5 mg/mL in water. […] Unlabeled oxaliplatin and [^14C]oxaliplatin were mixed just before dosing to achieve the required microdose, and injected through the peripheral vein at one arm. Peripheral blood specimens were drawn into BD Vacutainer CPT' tubes with sodium heparin from the other arm at specific time points before and after the administration of the microdose. Plasma samples collected at −5 min, 5 min, 15 min, 30 min, 2 h, 4 h, 8 h, 24 h, and 48 h post microdose injection were analyzed by liquid scintillation counting (FIG. 17A).

[5] = tested on: five bladder cancer cell lines (5637, T24, TCCSUP, HT1197, and J82); assay: Oxaliplatin-DNA adducts by AMS in cell culture; assay type: cell-based
Procedure: (§3) The cell lines were purchased from the American Type Culture Collection (ATCC, Manassas, Va.) and cultured in the recommended media.
as §1, with “Cells” for “To characterize the oxaliplatin-DNA adduct frequency in these cell lines, cells from each cell line”, “24” for “24, 28 and 48”, “the modified” for “a Promega”, “procedure described previously.” for “DNA Purification Kit.”, “nt. […] Oxaliplatin-DNA monoadducts could be detected in all cell lines at all time points. […] Therefore, drug-DNA damage from microdoses of oxaliplatin are predictive of the extent of DNA modification caused by the therapeutic dose in cell culture.” for “nt.”

[6] = cited from earlier work
[7] = Human plasma pharmacokinetics of carboplatin microdose, liquid scintillation counting; assay type: in vivo; conditions: four patients
Procedure: Although the pharmacokinetics of carboplatin are well known for therapeutic doses, it is not known if human pharmacokinetic parameters obtained using a microdose of carboplatin will track those obtained with therapeutic carboplatin dosing. […] This is a requirement for this diagnostic assay to be predictive of response to a therapeutic dose. The pharmacokinetics of microdose carboplatin were also measured in several different patients along with the kinetics of carboplatin-DNA monoadduct formation and repair in PBMC to establish that 24 hours post administration of a microdose of carboplatin is an appropriate time for sampling a patient for this predictive diagnostic assay.
Two of the bladder cancer patients received two doses of [^14C]carboplatin, including the initial diagnostic microdose and a second microdose at the time of full therapeutic dose. This allowed us to compare the pharmacokinetics of carboplatin in plasma after both microdosing and therapeutic dosing (FIG. 11A). […] Therefore, microdosing and therapeutic dosing yield similar carboplatin pharmacokinetics in human patients.
The pharmacokinetics of carboplatin administered as a microdose was assessed in four patients (two with bladder cancer and two with NSLC) for the purpose of comparing interpatient variability and establishing the optimum time point for tumor biopsy sample acquisition.

A549 tumor xenograph = assay: Tumor response to therapeutic carboplatin in xenograft; assay type: in vivo, nude mice; conditions: single IV 37.3 mg/kg, 14 days
Excerpt: (§4) Xenograft mouse tumors consisting of one carboplatin resistant and one sensitive tumor type were established for in vivo evaluation of carboplatin-DNA monoadduct formation and repair in tumor tissue and for in vivo evaluation of tumor response to therapeutic dosing with carboplatin. Tumor xenografts were established in 1-2 month old nude mice by injecting approximately one million cells into the left and right flanks, and allowed to develop tumors of less than 1 cm^3 over approximately 4 weeks prior to DNA adduct studies. Mice bearing resistant and sensitive tumors were exposed to either a microdose or therapeutic dose of carboplatin by tail vein injection. DNA isolated from tumor tissue was evaluated for carboplatin-DNA monoadduct frequency levels as a function of time. For tumor response, mice bearing resistant and sensitive tumors were therapeutically treated with a single IV injection of 37.3 mg/kg of carboplatin and then examined for tumor growth as assessed by measuring palpable tumors with a caliper and calculating tumor volume.
(§5) Mice xenografted with sensitive (H232A) and resistant (A549) lung cancer cell lines were infused with a therapeutic dose of carboplatin to assess tumor response. The tumors were measured daily over 14 days post infusion (FIG. 10C). Tumor size was normalized as the ratio of tumor diameter to the tumor diameter measured on day 0 (no change=1.0). […]

H23 2A tumor xenograph = assay: as above; assay type: in vivo, nude mice; conditions: H23 2A xenograph; single IV 37.3 mg/kg; 14 days
Excerpt: as §4, §5

5637R [8] = assay: MTT assay (IC50); assay type: cell-based; conditions: Homo sapiens, 72 hours
Procedure: (§6) Drug-DNA adduct formation and repair was measured by accelerator mass spectrometry.
To confirm that 5637 was the original ATCC cell line, and that 5637R originated from the parental 5637 cell line, both cultures were sent to the ATCC Cell Line Authentication Service for cell verification per the ATCC protocol. More specifically, fifteen short tandem repeat (STR) loci plus the gender determining locus, amelogenin, were amplified using the commercially available PowerPlex® 16HS Kit from Promega.
(§7) These two cell lines were also cultured with a range of concentrations of cisplatin, carboplatin, gemcitabine, doxorubicin, methotrexate and vinblastine for 72 hours to determine IC50 for these other drugs (FIG. 16C). These drugs were chosen because of their frequent use in the treatment of bladder cancer.

5637 [9] = assay: MTT assay (IC50); assay type: cell-based, human; conditions: Homo sapiens, 72 hours
Procedure: Thus, we measured the IC50 of the six NSCLC cell lines from Example 2 to both cisplatin and carboplatin to determine if the sensitivity of these six NSCLC cell lines to the two drugs are correlated.
as §3, §6, §7

[10] = 24 hour culture without oxaliplatin
[11] = 5637 (parental, Example 11), MTT

Q: Which “oxaliplatin-DNA adducts at 24 hours” value (5637 [1]; 10 μM for 24 hours) does the source give for `N[C@@H]1CCCC[14C@H]1N.O=C([O-])C(=O)[O-].[Pt+2]` [[^14C]oxaliplatin] here?
A: The value was 710.0±32.2 adducts per 10^8 nucleotide.

Q: What about the repair rate 5637 [1, 10] of the same molecule?
A: The repair rate was 1.34±0.30 adducts per 10^8 nucleotides-hour.

Q: What about the “area under curve (AUC) of oxaliplatin-DNA adducts” value (5637 [1]; 48 hour study time period) of the same molecule?
A: Its value is 27,720±2,985 adducts per 10^8 nucleotide-hour.

Q: And the “oxaliplatin-DNA adducts at 24 hours” value (5637R [2]; 10 μM for 24 hours)?
A: Its value is 259.2±37.3 adducts per 10^8 nucleotide.

Q: What about the repair rate (5637R [2]; [10]) of the same molecule?
A: Its repair rate is 3.48±0.15 adducts per 10^8 nucleotide-hour.

Q: And the “area under curve (AUC) of oxaliplatin-DNA adducts” value (5637R [2]; 48 hour study time period)?
A: Its value is 9,426±2457 adducts per 10^8 nucleotide-hour.

Q: What about the stability to freeze/thaw [3] of the same molecule?
A: The stability to freeze/thaw was “stable to free/thaw with no observed precipitation”.

Q: And the “loss of radiopurity per year” value ([3]; storage at −20° C.)?
A: Its value is under 2%.

Q: And the “maximum oxaliplatin-DNA adducts in PBMC” value (PBMC; metastatic breast cancer patient, microdose, first 4 hours)?
A: Its value is 8 adducts per 10^8 nt.

Q: And the “range of microdose-induced adduct levels (frequencies)” value (PBMC; three colorectal patients, PBMC)?
A: The value was 0.1-6 adducts per 10^8 nt.

Q: What about the “tolerability of the radiolabeled microdose” value (cancer patients) of the same molecule?
A: The value was “well tolerated”.

Q: And the “T1/2 (α), first (fast) phase” value [4]?
A: The value was 13.3 min.

Q: And the “DNA damage concentrations (total oxaliplatin-DNA adducts)” value ([5]; microdose, 0.1 μM oxaliplatin for 4 hours)?
A: Its value is 50-100 oxaliplatin-DNA adducts per 10^8 nt.

Q: And the “DNA damage concentrations (total oxaliplatin-DNA adducts)” value ([5]; therapeutic dose, 10 μM oxaliplatin for 4 hours)?
A: The value was 5,000-10,000 oxaliplatin-DNA adducts per 10^8 nt.

Q: Which “in vivo half-life in patients” value ([6]; in vivo) does the source give for `N.N.O=C([O-])C1(C(=O)[O-])CCC1.[Pt+2]` [carboplatin] here?
A: The value was 1.3 to 6 h.

Q: What about the “time to clearance from the blood” value [7] of the same molecule?
A: The value was at most 24 h.

Q: And the “tumor response (tumor growth)” value (A549 tumor xenograph)?
A: Its value is “continued to grow”.

Q: And the “tumor response (tumor growth)” value (H23 2A tumor xenograph)?
A: The value was “did not display any growth”.

Q: For `COc1cccc2c1C(=O)c1c(O)c3c(c(O)c1C2=O)C[C@@](O)(C(=O)CO)C[C@@H]3O[C@H]1C[C@H](N)[C@H](O)[C@H](C)O1` [doxorubicin], which IC50 (5637R [8]; MTT) is on record?
A: The IC50 was 270 nM.

Q: What about the IC50 5637 [9, 11] of the same molecule?
A: Its IC50 is 290 nM.

Q: Which results are given for `Nc1ccn([C@@H]2O[C@H](CO)[C@@H](O)C2(F)F)c(=O)n1` [gemcitabine]?
A: IC50 (5637R [8]; MTT): 1440 nM; IC50 5637 [9, 11]: 120 nM

Q: Which IC50 (5637R [8]; MTT) does the source give for `CN(Cc1cnc2nc(N)nc(N)c2n1)c1ccc(C(=O)N[C@@H](CCC(=O)O)C(=O)O)cc1` [methotrexate] here?
A: The IC50 was 1240 nM.

Q: And the IC50 5637 [9, 11]?
A: The IC50 was 2010 nM.

Q: Which Cmax ([6]; therapeutically treated patients, read-out: plasma Cmax) does the source give for `O=C1[O][Pt]2([NH][C@@H]3CCCC[C@H]3[NH]2)[O]C1=O` [oxaliplatin, reference compound] here?
A: Its Cmax is about 10 µM.

Q: For `CC[C@]1(O)C[C@@H]2CN(CCc3c([nH]c4ccccc34)[C@@](C(=O)OC)(c3cc4c(cc3OC)N(C)[C@H]3[C@@](O)(C(=O)OC)[C@H](OC(C)=O)[C@]5(CC)C=CCN6CC[C@]43[C@@H]65)C2)C1` [vinblastine], which IC50 (5637R [8]) is on record?
A: The IC50 was 0.61 nM.

Q: And the IC50 5637 [9]; 5637?
A: Its IC50 is 0.6 nM.
